Literature values as cited in US9642389B2 (MALAYSIAN PALM OIL BOARD, priority 2009, dated 2017).

Legend:
Fos = settings: aged rats, literature [34]
[1] = test system: brains of ovariectomized female rats; settings: literature [33]
mice = settings: literature [16-20]

CC(C)=CCC[C@](C)(O[C@@H]1O[C@H](CO)[C@@H](O)[C@H](O)[C@H]1O)[C@H]1CC[C@]2(C)[C@@H]1[C@H](O)C[C@@H]1[C@@]3(C)CC[C@H](O)C(C)(C)[C@@H]3[C@@H](O[C@@H]3O[C@H](CO)[C@@H](O)[C@H](O)[C@H]3O)C[C@]12C [ginsenoside Rg1]
age-related decline of Fos in the hippocampi (Fos): attenuated

O=c1c(O)c(-c2ccc(O)c(O)c2)oc2cc(O)cc(O)c12 [quercetin]
rate of protein synthesis in brains [1]: up-regulated

Oc1ccc(C=Cc2cc(O)cc(O)c2)cc1 [resveratrol]
performance of mice on rotarods (mice): improve
